Here are results for one compound from ChEMBL document CHEMBL1129053, “Synthesis and pharmacology of a very potent cannabinoid lacking a phenolic hydroxyl with high affinity for the CB2 receptor” (J Med Chem, 1996).

The structures appear in SMILES notation.

The test system of the assay is Mus musculus. Put plainly: Compound was evaluated in vivo for Pharmacology response in the mouse model Spontaneous Activity. Format: functional.

By ED50 is commonly meant the dose that gives a 50% effect, or the effect in half of the subjects. Read a low ED50 as greater potency.

With `CCCCCc1cc(O)c2c(c1)OC(C)(C)[C@@H]1CCC(C)=C[C@@H]21` [DRONABINOL], the ED50 is 2.9 µmol/kg.
